Experimental data as given in paper PMC11992225, “Antibacterial compounds against non-growing and intracellular bacteria” (npj Antimicrobials and Resistance, 2025).
“And” between values parts separate entries of the source, which are not always exact repeats. Equal entries are not always repeated.

How the values were obtained:
non-growing UPEC CFT073 = experiment: Dose-dependent killing analysis (CFU spot-plating) of stationary-phase UPEC; format: cell-based, Escherichia coli; conditions: for log10(CFU/ml) after treatment: individual replicates
Procedure: To differentiate between these scenarios, we used CFU counting by agar plating to assess the bactericidal effect on non-growing bacteria. […] Conversely, if no significant reduction in CFU is observed, the regrowth delay is due to PAE without killing. […] Fluoroquinolones are known to cause PAE after treatment of growing bacterial cultures.
(§1) For survival analysis, bacteria were cultivated as described for the dose–response dilution-regrowth assay. Assays with UPEC were conducted at the CBCS screening facility using 96-well plates with a 200 μl sample volume, and compounds were dispensed using the Echo® (Labcyte) system. P. aeruginosa and S. aureus samples were treated according to the protocol used for the dilution-regrowth experiments. Treated samples were serially diluted 10-fold in PBS, and 10 μl drops were spot-plated onto rectangular LB agar plates using either a Beckman NXP robot (for UPEC) or an Integra VIAFLO96 electronic pipette (for P. aeruginosa and S. aureus). The LB agar plates were incubated overnight at 37 °C and scanned. Colonies were counted at the spots of the lowest dilution where individual colonies could be accurately distinguished. Each colony was manually marked on a separate image layer using the GNU Image Manipulation Program, and counted using NIST’s Integrated Colony Enumerator (NICE 1.4) software. The experiments were performed in three biological replicates.

[1] = test system: non-growing S. aureus DSM2569; experiment: Dose-dependent killing analysis (CFU spot-plating) of stationary-phase S. aureus; format: cell-based, Staphylococcus aureus; conditions: S. aureus, individual replicates
Procedure: To determine the spectrum of activity of the compounds that were effective against non-growing UPEC, we further assessed their efficacy against the well-characterized Gram-negative and Gram-positive reference strains P. aeruginosa DSM1117 and S. aureus DSM2569, respectively. The cultures were grown and treated for 24 h in 1:4 CA-MHB (pH 7.4). […].
as §1

[2] = test system: non-growing S. aureus DSM2569; experiment: Dilution-regrowth assay (OD600, start-growth-time) on stationary-phase S. aureus; format: cell-based, Staphylococcus aureus; conditions: S. aureus; for Regrowth, OD600 at 6h or 8h after dilution into drug-free medium: average
Procedure: The cultures were grown and treated for 24 h in 1:4 CA-MHB (pH 7.4).
This approach allowed us to capture the time when cultures reached a threshold optical density (start-growth-time, SGT[15]).
The cultures were incubated for 24 h in non-baffled Erlenmeyer flasks at 37 °C with shaking at 200 rpm.
For P. aeruginosa and S. aureus, dose–response analysis was conducted in 96-well plates with a 200 μl assay volume, following the procedure used for screening assay validation experiments. […] Stock solutions were prepared and stored according to the manufacturers’ instructions, then diluted in 10% DMSO before use. Cultures were incubated for 24 h in 1:4 diluted CA-MHB medium under the same conditions used for UPEC cultivation. In preliminary experiments, each compound was tested at a concentration of 20 μM in the dilution-regrowth assay with 4 technical replicates. Regrowth was monitored using a microplate reader at 37 °C with continuous shaking, and OD600 was recorded every 20 min. The time at which OD600 exceeded the threshold of 0.12 was recorded as the Start_Growth-Time.
Statistical significance of the drug effects was assessed using a one-way ANOVA followed by Dunnett’s test, comparing each treatment to the drug-free control. Statistical significance of the differences in chemical characteristics between the hit compounds and the Prestwick library was assessed using a Mann–Whitney test. Statistical significance was set at P ≤ 0.05. A five-parameter logistic equation was used for asymmetric sigmoidal curve fitting and for EC50 and IC50 determination. The Venn diagram in Fig. 1F was prepared using BioVenn web application. Characteristics of the chemical and physical properties of Prestwick library compounds were obtained from Supplementary Table S1 from reference. Characteristics of the hit compounds not included in the Prestwick library were retrieved from the PubChem database.

[3] = E. coli in 1:4 CA-MHB (pH 7.4), 0.25 μM
[4] = E. coli in 1:4 CA-MHB (pH 7.4), 0.5 μM
[5] = E. coli in 1:4 CA-MHB (pH 7.4), 1 μM
[6] = E. coli in 1:4 CA-MHB (pH 7.4), 2.5 μM
[7] = E. coli in 1:4 CA-MHB (pH 7.4), 5 μM
[8] = E. coli in 1:4 CA-MHB (pH 7.4), 10 μM
[9] = E. coli in LPM (pH 5.5), 0.25 μM
[10] = E. coli in LPM (pH 5.5), 0.5 μM
[11] = E. coli in LPM (pH 5.5), 2.5 μM

## CC1COc2c(N3CCN(C)CC3)c(F)cc3c(=O)c(C(=O)O)cn1c23 (stereo not drawn) [Ofloxacin]
non-growing UPEC CFT073; E. coli in 1:4 CA-MHB (pH 7.4), concentration 0.25
  log10(CFU/ml) after treatment: 9.204 log10(CFU/ml) and 8.602 log10(CFU/ml) and 8.778 log10(CFU/ml)
non-growing UPEC CFT073; E. coli in 1:4 CA-MHB (pH 7.4), concentration 0.5
  log10(CFU/ml) after treatment: 9.041 log10(CFU/ml) and 8.301 log10(CFU/ml) and 8.699 log10(CFU/ml)
non-growing UPEC CFT073; E. coli in 1:4 CA-MHB (pH 7.4), concentration 1
  log10(CFU/ml) after treatment: 9.204 log10(CFU/ml) and 8.778 log10(CFU/ml) and 8.602 log10(CFU/ml)
non-growing UPEC CFT073; E. coli in 1:4 CA-MHB (pH 7.4), concentration 2.5
  log10(CFU/ml) after treatment: 9.204 log10(CFU/ml) and 8.845 log10(CFU/ml) and 8.699 log10(CFU/ml)
non-growing UPEC CFT073; E. coli in 1:4 CA-MHB (pH 7.4), concentration 5
  log10(CFU/ml) after treatment: 8.477 log10(CFU/ml) (2×) and 8.301 log10(CFU/ml)
non-growing UPEC CFT073; E. coli in 1:4 CA-MHB (pH 7.4), concentration 10
  log10(CFU/ml) after treatment: 8.544 log10(CFU/ml) and 8.230 log10(CFU/ml) and 8.176 log10(CFU/ml)
[1]; concentration 0.1
  log10(CFU/ml) after treatment: 9.279 log10(CFU/ml) and 9.041 log10(CFU/ml) and 9.086 log10(CFU/ml)
[1]; concentration 0.5
  log10(CFU/ml) after treatment: 9.301 log10(CFU/ml) and 9.049 log10(CFU/ml) and 8.462 log10(CFU/ml)
[1]; concentration 2.5
  log10(CFU/ml) after treatment: 9.230 log10(CFU/ml) and 9.093 log10(CFU/ml) and 8.740 log10(CFU/ml)
[1]; concentration 10
  log10(CFU/ml) after treatment: 9.447 log10(CFU/ml) and 8.924 log10(CFU/ml) and 8.839 log10(CFU/ml)
[2]; concentration 0.1
  Regrowth, OD600 at 6h or 8h after dilution into drug-free medium: 0.643
[2]; concentration 0.5
  Regrowth, OD600 at 6h or 8h after dilution into drug-free medium: 0.590
[2]; concentration 2.5
  Regrowth, OD600 at 6h or 8h after dilution into drug-free medium: 0.519
[2]; concentration 10
  Regrowth, OD600 at 6h or 8h after dilution into drug-free medium: 0.417
[2]; Staphylococcus aureus, DSM2569, regrowth delay of non-growing bacteria, 1:4 CA-MHB pH 7.4, 24 h treatment, OD600 8 h after dilution, read-out: EC50
  EC50: 14.3 µM

## CS[C@H]1SC[C@H]2C(=O)N(C)[C@@H](C(C)C)C(=O)OC[C@@H](NC(=O)c3cnc4ccccc4n3)C(=O)N[C@@H](C)C(=O)N(C)[C@@H]1C(=O)N(C)[C@@H](C(C)C)C(=O)OC[C@@H](NC(=O)c1cnc3ccccc3n1)C(=O)N[C@@H](C)C(=O)N2C [Echinomycin]
non-growing UPEC CFT073; [3]
  Log10(CFU/ml), Replicate #1: 9.431 Log10(CFU/ml)
  Log10(CFU/ml), Replicate #2: 8.699 Log10(CFU/ml)
  Log10(CFU/ml), Replicate #3: 8.505 Log10(CFU/ml)
non-growing UPEC CFT073; E. coli in 1:4 CA-MHB (pH 7.4), 0.25 μM, average killing vs before treatment (8.977)
  Δlog10(CFU/ml): 0.099 log10(CFU/ml)
non-growing UPEC CFT073; [4]
  Log10(CFU/ml), Replicate #1: 9.415 Log10(CFU/ml)
  Log10(CFU/ml), Replicate #2: 9.079 Log10(CFU/ml)
  Log10(CFU/ml), Replicate #3: 8.447 Log10(CFU/ml)
non-growing UPEC CFT073; E. coli in 1:4 CA-MHB (pH 7.4), 0.5 μM, average killing vs before treatment (8.977)
  Δlog10(CFU/ml): -0.003 log10(CFU/ml)
non-growing UPEC CFT073; [5]
  Log10(CFU/ml), Replicate #1: 9.380 Log10(CFU/ml)
  Log10(CFU/ml), Replicate #2: 9.114 Log10(CFU/ml)
  Log10(CFU/ml), Replicate #3: 8.398 Log10(CFU/ml)
non-growing UPEC CFT073; E. coli in 1:4 CA-MHB (pH 7.4), 1 μM, average killing vs before treatment (8.977)
  Δlog10(CFU/ml): 0.013 log10(CFU/ml)
non-growing UPEC CFT073; [6]
  Log10(CFU/ml), Replicate #1: 9.398 Log10(CFU/ml)
  Log10(CFU/ml), Replicate #2: 8.699 Log10(CFU/ml)
  Log10(CFU/ml), Replicate #3: 8.398 Log10(CFU/ml)
non-growing UPEC CFT073; E. coli in 1:4 CA-MHB (pH 7.4), 2.5 μM, average killing vs before treatment (8.977)
  Δlog10(CFU/ml): 0.146 log10(CFU/ml)
non-growing UPEC CFT073; [7]
  Log10(CFU/ml), Replicate #1: 9.362 Log10(CFU/ml)
  Log10(CFU/ml), Replicate #2: 8.477 Log10(CFU/ml)
  Log10(CFU/ml), Replicate #3: 8.477 Log10(CFU/ml)
non-growing UPEC CFT073; E. coli in 1:4 CA-MHB (pH 7.4), 5 μM, average killing vs before treatment (8.977)
  Δlog10(CFU/ml): 0.205 log10(CFU/ml)
non-growing UPEC CFT073; [8]
  Log10(CFU/ml), Replicate #1: 8.342 Log10(CFU/ml)
  Log10(CFU/ml), Replicate #2: 8.079 Log10(CFU/ml)
  Log10(CFU/ml), Replicate #3: 8.342 Log10(CFU/ml)
non-growing UPEC CFT073; E. coli in 1:4 CA-MHB (pH 7.4), 10 μM, average killing vs before treatment (8.977)
  Δlog10(CFU/ml): 0.723 log10(CFU/ml)
non-growing UPEC CFT073; [9]
  Log10(CFU/ml), Replicate #1: 6.778 Log10(CFU/ml)
  Log10(CFU/ml), Replicate #2: 7.114 Log10(CFU/ml)
  Log10(CFU/ml), Replicate #3: 8.398 Log10(CFU/ml)
non-growing UPEC CFT073; E. coli in LPM (pH 5.5), 0.25 μM, average killing vs before treatment (7.350)
  Δlog10(CFU/ml): -0.080 log10(CFU/ml)
non-growing UPEC CFT073; [10]
  Log10(CFU/ml), Replicate #1: 6.954 Log10(CFU/ml)
  Log10(CFU/ml), Replicate #2: 6.954 Log10(CFU/ml)
  Log10(CFU/ml), Replicate #3: 8.000 Log10(CFU/ml)
non-growing UPEC CFT073; E. coli in LPM (pH 5.5), 0.5 μM, average killing vs before treatment (7.350)
  Δlog10(CFU/ml): 0.048 log10(CFU/ml)
non-growing UPEC CFT073; E. coli in LPM (pH 5.5), 1 μM
  Log10(CFU/ml), Replicate #1: 6.954 Log10(CFU/ml)
  Log10(CFU/ml), Replicate #2: 7.255 Log10(CFU/ml)
  Log10(CFU/ml), Replicate #3: 8.301 Log10(CFU/ml)
non-growing UPEC CFT073; E. coli in LPM (pH 5.5), 1 μM, average killing vs before treatment (7.350)
  Δlog10(CFU/ml): -0.153 log10(CFU/ml)
non-growing UPEC CFT073; [11]
  Log10(CFU/ml), Replicate #1: 6.954 Log10(CFU/ml)
  Log10(CFU/ml), Replicate #2: 6.845 Log10(CFU/ml)
  Log10(CFU/ml), Replicate #3: 8.230 Log10(CFU/ml)
non-growing UPEC CFT073; E. coli in LPM (pH 5.5), 2.5 μM, average killing vs before treatment (7.350)
  Δlog10(CFU/ml): 0.007 log10(CFU/ml)
non-growing UPEC CFT073; E. coli in LPM (pH 5.5), 5 μM
  Log10(CFU/ml), Replicate #1: 6.778 Log10(CFU/ml)
  Log10(CFU/ml), Replicate #2: 7.342 Log10(CFU/ml)
  Log10(CFU/ml), Replicate #3: 8.204 Log10(CFU/ml)
non-growing UPEC CFT073; E. coli in LPM (pH 5.5), 5 μM, average killing vs before treatment (7.350)
  Δlog10(CFU/ml): -0.091 log10(CFU/ml)
non-growing UPEC CFT073; E. coli in LPM (pH 5.5), 10 μM
  Log10(CFU/ml), Replicate #1: 6.279 Log10(CFU/ml)
  Log10(CFU/ml), Replicate #2: 6.362 Log10(CFU/ml)
  Log10(CFU/ml), Replicate #3: 6.602 Log10(CFU/ml)
non-growing UPEC CFT073; E. coli in LPM (pH 5.5), 10 μM, average killing vs before treatment (7.350)
  Δlog10(CFU/ml): 0.936 log10(CFU/ml)
